Source: patent US20250025439A1, “DERIVATIVES OF NIFUROXAZIDE FOR USE IN THE TREATMENT OF MITOCHONDRIAL DISORDERS AND NEURODEGENERATIVE DISEASES” (priority 2021, published 2025)

Molecular target: T1, Pleckstrin homology-like domain family B member 2 (PHLDB2) (Homo sapiens, UniProt Q86SQ0)
T1 construct: Protein extracts from human fibroblasts were incubated with magnetic beads; endogenous in cells; host or cells: human fibroblast lysate
T1 sequence (Q86SQ0 1-1253): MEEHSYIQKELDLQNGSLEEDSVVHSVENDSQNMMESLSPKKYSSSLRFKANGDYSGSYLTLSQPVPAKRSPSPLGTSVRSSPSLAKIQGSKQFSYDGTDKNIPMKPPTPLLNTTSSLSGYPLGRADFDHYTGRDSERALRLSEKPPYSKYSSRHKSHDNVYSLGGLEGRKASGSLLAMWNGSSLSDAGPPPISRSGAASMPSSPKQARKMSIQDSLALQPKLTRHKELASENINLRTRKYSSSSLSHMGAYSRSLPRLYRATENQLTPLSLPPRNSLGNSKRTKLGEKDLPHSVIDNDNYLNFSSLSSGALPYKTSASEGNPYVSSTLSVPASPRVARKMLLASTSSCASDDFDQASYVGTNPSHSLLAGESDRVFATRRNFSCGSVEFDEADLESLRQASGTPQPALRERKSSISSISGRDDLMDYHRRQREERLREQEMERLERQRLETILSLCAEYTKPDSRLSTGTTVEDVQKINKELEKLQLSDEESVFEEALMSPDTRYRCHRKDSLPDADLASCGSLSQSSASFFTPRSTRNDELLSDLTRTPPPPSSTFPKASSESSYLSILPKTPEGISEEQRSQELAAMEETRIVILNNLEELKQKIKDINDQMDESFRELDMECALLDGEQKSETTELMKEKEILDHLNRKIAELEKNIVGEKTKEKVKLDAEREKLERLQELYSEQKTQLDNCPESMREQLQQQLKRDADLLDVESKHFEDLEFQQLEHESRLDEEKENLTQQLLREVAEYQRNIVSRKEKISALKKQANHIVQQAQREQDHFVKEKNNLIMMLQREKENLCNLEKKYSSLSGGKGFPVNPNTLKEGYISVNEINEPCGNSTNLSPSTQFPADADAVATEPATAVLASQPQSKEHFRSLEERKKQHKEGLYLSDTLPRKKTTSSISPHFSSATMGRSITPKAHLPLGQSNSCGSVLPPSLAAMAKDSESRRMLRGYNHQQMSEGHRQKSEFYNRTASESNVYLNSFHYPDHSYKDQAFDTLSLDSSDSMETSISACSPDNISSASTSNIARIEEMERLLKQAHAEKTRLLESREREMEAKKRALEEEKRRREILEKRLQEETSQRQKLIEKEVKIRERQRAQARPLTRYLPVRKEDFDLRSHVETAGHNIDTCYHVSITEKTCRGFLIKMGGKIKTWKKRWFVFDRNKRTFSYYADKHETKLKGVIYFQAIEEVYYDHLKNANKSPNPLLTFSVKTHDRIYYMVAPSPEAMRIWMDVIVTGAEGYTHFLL
Assay: Affinity chromatography with NFX-beads and mass spectrometry
Format: binding
Conditions: spectral counts, NFX coupled beads vs beads alone, human fibroblast extracts
Experimental: Fibroblasts were trypsinized and washed with PBS 1× then incubated in lysis buffer on ice during 20 minutes (Lysis buffer: Tris-HCl pH 7.5 50 mM, EDTA 2 mM, Triton X-100 0.1% supplemented with anti-protease and anti-phosphatase (Complete-Mini™—Roche). After centrifugation 15 minutes, 13 000 rpm at 4° C., supernatant was conserved and the protein concentration was determined using the Pierce BCA assay kit (Thermo Fisher Scientific).
10 μL of magnetic beads and NFX-beads were washed three times in Bead buffer before to be resuspended 100 μL of Bead buffer (Bead buffer: Tris-HCl pH 7.5 50 mM, NaCl 150 mM, Triton X-100 0.1%, supplemented with anti-protease and anti-phosphatase (Complete-Mini™—Roche)) thanks to a magnetic rack (DynaMag-2 Ref 12321D Life Technologies). 800 μg of proteins were mixed with 100 μL of diluted beads and the final volume was set to 800 μL with Bead buffer. The proteins and the beads were incubated 30 minutes with rotation in a cold room. Using a magnetic rack, the beads were separated from the protein extract and washed three time with Bead buffer before to be resuspended in 75 μL of Laemmli2X. Laemmli with beads was put 5 minutes at 95° C. to eluate the proteins and the beads were discarded using a magnetic rack. 35 μL of the eluted proteins were subjected to SDS-PAGE and silver coloration (ProteoSilver™ Silver Stain Kit—Sigma Aldrich). Bands of interest were extracted from the gel and subjected to mass spectrometry.
Mass spectrometric identification and quantification of the pulled down proteins were performed as previously described (Shrivastava et al., EMBO, 2019, 38:e99871). The raw data were cleaned using the following pathway. First, only the proteins found to interact with the NFX coupled beads in the three replicates were kept for further analysis. […] The final proteins were then classified based on the fold chance and the p-value.
Identification of the NFX intracellular targets is a crucial step in understanding its mechanisms of action and to be able to improve its efficiency on a rational basis. To purify NFX-binding proteins, affinity chromatography purification was performed using magnetic beads. Protein extracts from human fibroblasts were incubated with magnetic beads alone or to which NFX has been covalently coupled (Scheme 1). Eluted fractions were subjected to SDS-PAGE electrophoresis and silver staining (FIG. 9A). The pattern was clearly different between eluted proteins from NFX-beads compared to those eluted form beads alone with 13 bands either appeared or were of a higher intensity with the NFX-beads (FIG. 9B). Excised bands were subjected to proteolytic digestion and mass spectrometry.

Fold change: 91.67
SMILES: O=C(N/N=C/c1ccc([N+](=O)[O-])o1)c1ccc(O)cc1 [NFX, (E)-4-hydroxy-N′-((5-nitrofuran-2-yl)methylene)benzohydrazide]
